Test results taken from patent US20230390324A1, “TREATMENT OF FATTY LIVER DISEASES” (TX MEDIC AB, priority 2020, published 2023).

Columns and labels:
[1] = Serum total bilirubin in patients before and after dextran sulfate administration; assay type: in vivo; settings: human patients with a neurological disease, 2 mg/kg subcutaneous once a week for ten weeks, week 10 vs week 0, p<0.05, FIG. 1
Description: Dextran sulfate (Tikomed A B, Viken, Sweden, WO 2016/076780) was administered at 2 mg/kg by […] subcutaneous injection once a week for ten weeks to human patients suffering from a neurological disease.
Peripheral venous blood samples were collected from patients before (week 0) and after dextran sulfate administration (week 5 and week 10) after at least 15 minutes of complete rest, using the standard tourniquet procedure, from the antecubital vein into a single VACUETTE® polypropylene tube containing serum separator and clot activator (Greiner-Bio One GmbH, Kremsmunster, Austria). After 30 mins at room temperature (20-25° C.), blood withdrawals were centrifuged at 1,890×g for 10 min to get serum aliquots.
A serum aliquot of about 300 μl was light-protected and then processed to extract fat-soluble metabolites using a method described in detail (Lazzarino et al., Single-step preparation of selected biological fluids for the high performance liquid chromatographic analysis of fat-soluble vitamins and antioxidants, J Chromatogr A. 2017; 1527: 43-52). Briefly, samples were supplemented with 1 ml of HPLC-grade acetonitrile, vigorously vortexed for 60 sec and incubated at 37° C. for 1 h in a water bath under agitation to allow the full extraction of lipid soluble compounds. […]

[2] = test system: 12 BioMAP® Diversity Plus human cell systems; assay: BioMAP Diversity PLUS phenotypic profiling in 12 primary human cell and co-culture systems; assay type: cell-based
Description: Twelve primary human cell and co-cultures assays were used to assess the effects of dextran sulfate on clinically-relevant protein biomarkers of inflammation, cell growth and fibrosis as part of the quality controlled BioMAP® Diversity PLUS, commercially available service (Eurofins DiscoverX Corporation, Freemont, CA, USA; for full details https://www.discoverx.com). Dextran sulfate was tested in these assays at four concentrations: 4000 nMw 1300 nMw 400 nM and 150 nM. Human primary cells employed in the BioMAP® systems were used at passage 4 or earlier, derived from multiple donors (n=2 to 6), commercially purchased and handled according to the recommendations of the manufacturers. Human blood derived CD14+ monocytes were differentiated into macrophages in vitro before being added to the IMphg system (Eurofins DiscoverX Corporation).
The cell types and stimuli used in each assay system were as follows: 3C system [Human umbilical vein endothelial cells (HUVEC)+(IL-1β, TNFα and IFNγ)], 4H system [HUVEC+(IL-4 and histamine)], LPS system [Peripheral blood mononuclear cells (PBMC) and HUVEC+LPS (TLR4 ligand)], SAg system [PBMC and HUVEC+TCR ligands], BT system [CD19+ B cells and PBMC+(α-IgM and TCR ligands)], BF4T system [bronchial epithelial cells (BEC) and human neonatal dermal fibroblasts (HDFn)+(TNFα and IL-4)], BE3C system [BEC+(IL-1β, TNFα and IFNγ)], CASM3C system [coronary artery smooth muscle cells (CASMC)+(IL-1β, TNFα and IFNγ)], HDF3CGF system [HDFn+(IL-1β, TNFα, IFNγ, EGF, bFGF and PDGF-BB)], KF3CT system [keratinocytes and HDFn+(IL-1β, TNFα, IFNγ and TGFβ)], MyoF system [differentiated lung myofibroblasts+(TNFα and TGFβ)] and IMphg system [HUVEC and M1 macrophages+Zymosan (TLR2 ligand)].
Assays were derived from either single cell types or co-culture systems. Adherent cell types were cultured in 96 or 384-well plates until confluence, followed by the addition of PBMC (SAg and LPS systems). […] Test agents prepared in either DMSO (small molecules; final concentration 0.1%) or PBS (biologics) were added at the indicated concentrations 1 h before stimulation, and cells remained in culture for 24 h or as otherwise indicated (48 h, MyoF system; 72 h, BT system (soluble readouts); 168 h, BT system (secreted IgG)). […] Soluble factors from supernatants were quantified using either HTRF® detection, bead-based multiplex immunoassay or capture ELISA. Overt adverse effects of dextran sulfate on cell proliferation and viability (cytotoxicity) were detected by sulforhodamine B (SRB) staining for adherent cells, and alamarBlue® reduction for cells in suspension. For proliferation assays, individual cell types were cultured at subconfluence and measured at time points optimized for each system (48 h: 3C and CASM3C systems; 72 h: BT and HDF3CGF systems; 96 h: SAg system). Cytotoxicity for adherent cells was measured by SRB (24 h: 3C, 4H, LPS, SAg, BF4T, BE3C, CASM3C, HDF3CGF, KF3CT, and IMphg systems; 48 h: MyoF system), and by alamarBlue® staining for cells in suspension (24 h: SAg system; 42 h: BT system) at the time points indicated.
Biomarker measurements in dextran sulfate-treated samples were divided by the average of the control samples (at least 6 vehicle controls from the same plate) to generate a ratio that was then log10 transformed. Significance prediction envelopes were calculated using historical vehicle control data at a 95% confidence interval. […]

[3] = test system: Human Schwann cells (ATCC CRL-2884™); assay: Gene expression study in cultured human Schwann cells (microarray, IPA network analysis); assay type: cell-based; settings: 0.01 mg/ml, 48 hours
Description: Human Schwann cells (ATCC CRL-2884™) were cultured in 25 cm^2 culture flasks coated with poly-d-lysine and laminin) in high-glucose DMEM with 10% fetal bovine serum (FBS) (n=8) and incubated at 37° C./5% CO2. Twenty-four house after seeding (Day 0) cells were treated once with either dextran sulfate (0.01 mg/ml in DMEM) or culture media. After 48 hours with treatment, the media were removed and cells were harvested in 2.5 ml Trizol:Water (4:1) solution containing 0.5 ml of chloroform at room temperature (RT). The flasks were inspected under the microscope to ensure full removal of cells. The collected lysates were stored at −80° C.
Lysates were left to equilibrate for 5 minutes at room temperature to permit the complete dissociation of nucleoprotein complexes. 1 ml lysate was removed from each sample and 200 μL of chloroform was added to each and the tube was shaken vigorously. Samples were stored at room temperature for 2-3 minutes and subsequently centrifuged at 12,000×g/15 min at 4° C. The mixture separated into 3 layers: a lower red phenol-chloroform phase, an interphase and a colorless upper aqueous phase. The top % of the aqueous phase (containing the RNA) was transferred to a new clean Eppendorf tube. The RNA was precipitated from the aqueous phase by adding an equal amount of 100% ethanol. The precipitated RNA was fixed onto a Spin Cartridge, washed twice and dried. The RNA was eluted in 50 μL warm RNase-Free Water. The amount and quality of the purified RNA was measured by Nanodrop. The RNA was stored at −80° C. before transfer to Source Bioscience for Gene Array analysis.
The background corrected expression data from each sample were downloaded into a separate file. The background corrected signal was log2 transformed for all samples for statistical analysis. To reduce the false discovery rate in the samples, the signals that were below ‘expression level’ were removed. The ‘below expression’ level was set at 5 for the log2 transformed expression values. (The expression value of the MAPT gene, which is not normally expressed in Schwann cells, was <5. However, the expression of usual ‘control’ gene ACTB (A_32_P137939; ACTB) was comfortably above 5).
MetaboAnalyst (Chong and Xia, MetaboAnalystR: an R package for flexible and reproducible analysis of metabolomics data, Bioinformatics 34(24): 4313-4314 (2018)) was used to analyze the gene expression profiles. […]
Additionally, a preliminary analysis was carried out to screen out genes that were not differentially expressed between any combinations of the three datasets. […] The remaining probe sets were analyzed for fold change and significance using Volcano plots (Qlucore, Lund, Sweden). […]

[4] = protein level, BioMAP Diversity Plus

Substance: Dextran sulfate
- circulating levels of total bilirubin (free bilirubin + conjugated bilirubin) [1]: significant time-dependent decrease
- overall analysis of the responses of the 12 model systems ([2]; 150-4000 nM, FIG. 3): modulated inflammatory and immunoregulatory cytokines and molecules, tissue remodeling pathways (including activation of matrix degrading enzymes) and hemostasis activity
- cytotoxicity (SRB staining / alamarBlue reduction) ([2]; all human culture systems evaluated, 150, 400, 1300 and 4000 nM): no cytotoxicity evident
- CXCL9 levels [2, 4]: reduced levels
- CXCL10 levels [2, 4]: reduced levels
- CXCL11 levels [2, 4]: reduced levels
- effect on inflammatory genes (molecular network analysis) ([3]; FIG. 5B): resolution of the normal inflammatory response
- expression of the anti-fibrotic proteoglycan decorin ([3]; TGFβ-regulated gene network): upregulating
- share of molecules of the TGFβ-regulated fibrosis network whose expression was regulated ([3]; 14 of 165 molecules, p<0.001): 8.5%
- number of molecules of the TGFβ-regulated mechanistic network responsible for fibrosis whose expression was regulated ([3]; of 165 molecules, p<0.001): 14
